The record followed here is US20210032257A1, “(E)-1-(4-(DIMETHYLAMINO)BUT-2-ENOYL)PYRROLIDIN-3-YL 4-((3-ISOPROPYL-5-METHYLPYRAZOLO[1,5-A]PYRIMIDIN-7-YL)AMINO)PIPERIDINE-1-CARBOXYLATE FOR INHIBITING CDK7” (Eli Lilly and Company, priority 2017, published 2021).

pIC50: −log10 of the molar value.

In experiment [1] the test system is PLCPRF5. The experiment can be described thus: Biomarker study proliferation (CellTiter-Glo). The format is cell-based. In a few lines:
(§1)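 Luminescence from CellTiter-Glo, read 15 minutes after reagent addition, measures viable cells after a seven-day compound exposure at 37 °C. Plating is 5000 cells per well in recommended medium such as RPMI 1640 with 10% FBS.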
Background: ATP-based viability assays read luminescence as a measure of living cells.

Experiment [2] concerns HEP3B217. Description: Biomarker study proliferation (CellTiter-Glo). The format is cell-based. In short, it runs like this:
as §1

The test system of experiment [3] is NCIH82. Description: Biomarker study proliferation (CellTiter-Glo). Type of experiment: cell-based. In short, it runs like this:
as §1

Experiment [4] deals with LN229. Description: Biomarker study proliferation (CellTiter-Glo). Type of experiment: cell-based. In a few lines:
as §1

Experiment [5] relates to MKN45 xenograft. The experiment can be described thus: Xenograft Tumor Model. Type of experiment: in vivo, mice. Conditions: MKN45, Stomach, KMT2C; 20 mg/kg PO QDx35. On the procedure: (§2) To evaluate in vivo efficacy of a test compound, multiple xenograft tumor models are utilized. Briefly, 5-10×10^6 tumor cells in a 1:1 MATRIGEL® mix (0.2 mL total volume) are injected subcutaneously into the female athymic nude mice (Envigo, Harlan laboratories) for a majority of xenograft tumor models. Alternate mice strains are utilized to establish MDAMB468 (NOD SCID Gamma, Jackson labs), CT26 and EMT6 (BALB/c, Envigo, Harlan Laboratories) xenografts. After allowing tumors to reach a desired size of ˜300-500 mm^3, animals are randomized into groups of 6-8 for efficacy studies. Test compound is administered via oral gavage (PO) at indicated doses and regimens. Tumor growth and body weight are monitored over time to evaluate efficacy and signs of toxicity.
(§3) Test compound is formulated in 5% N-methyl-2-pyrrolidone (NMP) in 1% hydroxyethylcellulose, 0.25% polysorbate 80, 0.05% antifoam in purified water (HEC) and administered by oral gavage (final volume 0.2 mL) at the doses indicated in Table 4. A test compound is formulated on a weekly basis and stored at 4° C. Vehicles are administered to the control groups according the schedules used above using a volume of 0.2 mL per dose. Mice are dosed via oral gavage and tumor samples are collected at termination and stored at −80° C.
(§4) Tumor size and body weight are recorded and analyzed bi-weekly. Blood is collected using DBS (dried blood spot) card 2 hours after dose and at termination. Tumors are collected at study termination, cut into 3 sections and either snap frozen for exposure and protein analysis, or placed in RNAlater® for RNA analysis. Tissue samples are frozen and stored at −80° C.
(§5) Delta T/C % is calculated when the endpoint tumor volume in a treated group is at or above baseline tumor volume. The formula is 100*(T−T0)/(C−C0). Here, T and C are mean endpoint tumor volumes in the treated or control group, respectively. TO and CO are mean baseline tumor volumes in those groups. *: Significant (p<0.05)

Experiment [6] has as its system MIAPACA2 xenograft. Description: Xenograft Tumor Model. The format is in vivo, mice. Conditions: MIAPACA2, Pancreatic, ARID1A; 20 mg/kg PO QDx35. On the procedure: as §2, §3, §4, §5
Experiment [7] relates to COLO205 xenograft. The experiment can be described thus: Xenograft Tumor Model. Type of experiment: in vivo, mice. Conditions: COLO205, Colorectal; 20 mg/kg PO QDx28. As for the experimental part: as §2, §3, §4, §5
The subject of experiment [8] is EMT6 xenograft. Description: Xenograft Tumor Model. The format is in vivo, mice. Particulars: EMT6, Breast; BALB/c; 20 mg/kg PO QDx28. On the procedure: as §2, §3, §4, §5
In experiment [9] the test system is HCC1806 xenograft. Description: Xenograft Tumor Model. Conditions: HCC1806, Breast, KMT2C; 20 mg/kg PO QDx28. Type of experiment: in vivo, mice. On the procedure: as §2, §3, §4, §5
The test system of experiment [10] is H441 xenograft. The experiment can be described thus: Xenograft Tumor Model. Particulars: H441, Lung; 20 mg/kg PO QDx35. Type of experiment: in vivo, mice. On the procedure:
as §2, §3, §4, §5

Experiment [11] deals with HCT116 xenograft. Description: Xenograft Tumor Model. Conditions: HCT116, Colorectal, KMT2C; 25 mg/kg PO QDx21. The format is in vivo, mice. On the procedure:
as §2, §3, §4, §5

Experiment [12] relates to A2780 xenograft. The experiment can be described thus: Xenograft Tumor Model. The format is in vivo, mice. Particulars: A2780, Ovary, ARID1A; 20 mg/kg PO QDx35. On the procedure: as §2, §3, §4, §5
Experiment [13] deals with H460 xenograft. Description: Xenograft Tumor Model. Particulars: H460, Lung, ARID1A; 20 mg/kg PO QDx35. The format is in vivo, mice. As for the experimental part: as §2, §3, §4, §5
The subject of experiment [14] is CT26 xenograft. The experiment can be described thus: Xenograft Tumor Model. The format is in vivo, mice. Particulars: CT26, Colorectal; BALB/c; 20 mg/kg PO QDx24. On the procedure:
as §2, §3, §4, §5

For the compound `Cc1cc(NC2CCN(C(=O)O[C@H]3CCN(C(=O)/C=C/CN(C)C)C3)CC2)n2ncc(C(C)C)c2n1` [Example 1, [(3S)-1-[(E)-4-(dimethylamino)but-2-enoyl]pyrrolidin-3-yl] 4-[(3-isopropyl-5-methyl-pyrazolo[1,5-a]pyrimidin-7-yl)amino]piperidine-1-carboxylate], the pIC50 was less than 5.00 in experiment [1] (Homo sapiens, PLC-PRF-5, 168 h, read-out: Anti-proliferation effect IC50); 7.48 in experiment [2] (168 h, read-out: Anti-proliferation effect IC50); 6.16 in experiment [3] (Homo sapiens, NCI-H82, 168 h, read-out: Anti-proliferation effect IC50); 7.44 in experiment [4] (Homo sapiens, LN-229, 168 h, read-out: Anti-proliferation effect IC50). Moreover, the “Anti-proliferation effect % Inh.” value in experiment [1] (PLCPRF5, LIVER, 7 days) is listed as 41%; in experiment [2] (HEP3B217, LIVER, 7 days) it was 66%; in experiment [3] (NCIH82, LUNG, 7 days) it was 22%; in experiment [4] (LN229, CNS, 7 days), 63%. The “Anti-proliferation effect Outcome” value in [1] (PLCPRF5, LIVER, 7 days) is “Insensitive (insensitive (IC50≥1 μM))”; in experiment [2] (HEP3B217, LIVER, 7 days), “Cytostatic (cytostatic (IC50<1 μM and % inhibition <70%))”; in [3] (NCIH82, LUNG, 7 days) it was “Cytostatic (cytostatic (IC50<1 μM and % inhibition <70%))”; in [4] (LN229, CNS, 7 days), “Cytostatic (cytostatic (IC50<1 μM and % inhibition <70%))”. The “Avg. ΔT/C” value in [5] is 57%; in [6] it was 10%; in experiment [7] it was −4%; in experiment [8] it was 17%; in experiment [9], −87%; in experiment [10], 0%. The “Avg. ΔT/C” value in [11] is reported as −17%; in [12], −41%; in experiment [13], 16%; in [14], 52%.
